Laboratory results taken from patent publication US10040798B2, “Pyrrolopyridazine inhibitors of IRAK4 activity” (MERCK SHARP & DOHME CORP., priority 2015, dated 2018).
Counter-ions that a name gives are not always drawn.

Target: IRAK4 (Homo sapiens (Human), UniProt Q9NWZ3)
Assay: IRAK4 Kinase Assay (IMAP fluorescence polarization)
Format: biochemical
Conditions: 0.5 nM GST tagged IRAK4, 100 μM ATP, 30 minutes at 25° C., IMAP FP
Outline: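 GST-tagged IRAK4 (0.5 nM) phosphorylated 100 nM fluorescent peptide RP7030 with 100 μM ATP in 10 mM Tris-HCl pH 7.2, MgCl2, DTT and Tween 20 for 30 min at 25 °C. Phosphorylation was read as the increase in fluorescence polarization after binding to IMAP nanoparticles.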

Sequence of IRAK4 (Q9NWZ3 whole entry): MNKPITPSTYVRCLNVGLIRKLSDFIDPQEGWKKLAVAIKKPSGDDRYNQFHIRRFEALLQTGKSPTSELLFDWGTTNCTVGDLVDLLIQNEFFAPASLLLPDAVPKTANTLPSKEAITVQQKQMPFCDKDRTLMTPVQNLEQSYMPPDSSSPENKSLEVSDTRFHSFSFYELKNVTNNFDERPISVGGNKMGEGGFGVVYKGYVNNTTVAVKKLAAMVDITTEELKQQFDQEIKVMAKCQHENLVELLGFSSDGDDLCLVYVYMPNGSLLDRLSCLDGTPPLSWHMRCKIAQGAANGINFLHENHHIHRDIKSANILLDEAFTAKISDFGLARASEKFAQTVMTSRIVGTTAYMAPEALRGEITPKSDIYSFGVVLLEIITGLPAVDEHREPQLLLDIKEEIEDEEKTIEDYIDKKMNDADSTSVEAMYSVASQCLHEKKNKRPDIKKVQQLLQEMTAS

Row | Structure (SMILES) | IC50 [nM]
1 | O=C(Nc1ccsc1Br)c1ccc2ccc(N3CCCNCC3)nn12 [Example 76, N-(2-bromothiophen-3-yl)-2-(1,4-diazepan-1-yl)pyrrolo[1,2-b]pyridazine-7-carboxamide trifluoroacetate] | 1320
2 | N[C@@H]1[C@H](Nc2ccc3ccc(C(=O)Nc4ccsc4Br)n3n2)CCCC1(F)F [Example 86, 2-{[(1R,2R)-2-amino-3,3-difluoro-cyclohexyl]amino}-N-(2-bromothiophen-3-yl)pyrrolo[1,2-b]pyridazine-7-carboxamide trifluoroacetate] | 5240
3 | N[C@@H]1[C@H](Nc2ccc3ccc(C(=O)Nc4cscc4Cl)n3n2)CCCC1(F)F [Example 87, 2-{[(1R,2R)-2-amino-3,3-difluoro-cyclohexyl]amino}-N-(4-chlorothiophen-3-yl)pyrrolo[1,2-b]pyridazine-7-carboxamide acetate] | 2170
4 | N[C@@H]1[C@H](Nc2ccc3ccc(C(=O)Nc4cscc4Br)n3n2)CCCC1(F)F [Example 88, 2-{[(1R,2R)-2-amino-3,3-difluoro-cyclohexyl]amino}-N-(4-bromothiophen-3-yl)pyrrolo[1,2-b]pyridazine-7-carboxamide trifluoroacetate] | 6160
5 | N[C@@H]1[C@H](Nc2ccc3ccc(C(=O)Nc4ccsc4Cl)n3n2)CCCC1(F)F [Example 90, 2-{[(1R,2R)-2-amino-3,3-difluoro-cyclohexyl]amino}-N-(2-chlorothiophen-3-yl)pyrrolo[1,2-b]pyridazine-7-carboxamide trifluoroacetate] | 1920
6 | O=C(Nc1ccsc1Cl)c1ccc2ccc(N[C@@H]3CCCC[C@@H]3O)nn12 [Example 91, N-(2-chlorothiophen-3-yl)-2-{[(1R,2S)-2-hydroxycyclohexyl]amino}pyrrolo[1,2-b]pyridazine-7-carboxamide] | 6370
7 | N[C@@H]1[C@H](Nc2ccc3ccc(C(=O)Nc4ccccc4Cl)n3n2)CCCC1(F)F [Example 92, 2-{[(1R,2R)-2-amino-3,3-difluoro-cyclohexyl]amino}-N-(2-chlorophenyl)pyrrolo[1,2-b]pyridazine-7-carboxamide trifluoroacetate] | 2060
8 | O=C(Nc1ccccc1Cl)c1ccc2ccc(N[C@@H]3CCCC[C@@H]3O)nn12 [Example 93, N-(2-chlorophenyl)-2-{[(1R,2S)-2-hydroxycyclohexyl]amino}pyrrolo[1,2-b]pyridazine-7-carboxamide trifluoroacetate] | 6840
9 | N[C@@H]1[C@H](Nc2ccc3ccc(C(=O)Nc4ccccc4Br)n3n2)CCCC1(F)F [Example 94, 2-{[(1R,2R)-2-amino-3,3-difluoro-cyclohexyl]amino}-N-(2-bromophenyl)pyrrolo[1,2-b]pyridazine-7-carboxamide trifluoroacetate] | 5630
10 | O=C(Nc1ccccc1Br)c1ccc2ccc(N[C@@H]3CCCC[C@@H]3O)nn12 [Example 95, N-(2-bromophenyl)-2-{[(1R,2S)-2-hydroxycyclohexyl]amino}pyrrolo[1,2-b]pyridazine-7-carboxamide trifluoroacetate] | 5860
11 | N#Cc1sccc1NC(=O)c1ccc2ccc(N[C@@H]3CCCC[C@@H]3O)nn12 [Example 97, N-(2-cyanothiophen-3-yl)-2-{[(1R,2S)-2-hydroxycyclohexyl]amino}pyrrolo[1,2-b]pyridazine-7-carboxamide trifluoroacetate] | 1370
12 | N#Cc1ccccc1NC(=O)c1ccc2ccc(N[C@@H]3CCCC[C@@H]3O)nn12 [Example 104, N-(2-cyanophenyl)-2-{[(1R,2S)-2-hydroxycyclohexyl]amino}pyrrolo[1,2-b]pyridazine-7-carboxamide trifluoroacetate] | 1860

Compounds with a lower IC50, results first:

Row | IC50 [nM] | Structure (SMILES)
13 | 2 | N#Cc1sccc1NC(=O)c1ccc2ccc(N[C@@H]3CCCC[C@@H]3N)nn12 [Example 75, 2-{[(1R,2S)-2-aminocyclohexyl]amino}-N-(2-cyanothiophen-3-yl)pyrrolo[1,2-b]pyridazine-7-carboxamide trifluoroacetate]
14 | 11 | N[C@H]1CCCC[C@H]1Nc1ccc2ccc(C(=O)Nc3ccsc3Br)n2n1 [Example 77, 2-{[(1R,2S)-2-aminocyclohexyl]amino}-N-(2-bromothiophen-3-yl)pyrrolo[1,2-b]pyridazine-7-carboxamide trifluoroacetate]
15 | 308 | O=C(Nc1cscc1Cl)c1ccc2ccc(N3CCCNCC3)nn12 [Example 82, N-(4-chlorothiophen-3-yl)-2-(1,4-diazepan-1-yl)pyrrolo[1,2-b]pyridazine-7-carboxamide trifluoroacetate]
16 | 2 | N[C@H]1CCCC[C@H]1Nc1ccc2ccc(C(=O)Nc3cscc3Cl)n2n1 [Example 85, 2-{[(1R,2S)-2-aminocyclohexyl]amino}-N-(4-chlorothiophen-3-yl)pyrrolo[1,2-b]pyridazine-7-carboxamide trifluoroacetate]
17 | 342 | N#Cc1cscc1NC(=O)c1ccc2ccc(N[C@@H]3CCCC(F)(F)[C@@H]3N)nn12 [Example 89, 2-{[(1R,2R)-2-amino-3,3-difluoro-cyclohexyl]amino}-N-(4-cyanothiophen-3-yl)pyrrolo[1,2-b]pyridazine-7-carboxamide trifluoroacetate]
18 | 753 | N[C@@H]1[C@H](Nc2ccc3ccc(C(=O)Nc4cscc4C(F)F)n3n2)CCCC1(F)F [Example 96, 2-{[(1R,2R)-2-amino-3,3-difluoro-cyclohexyl]amino}-N-[4-(difluoro-methyl)thiophen-3-yl]pyrrolo[1,2-b]pyridazine-7-carboxamide trifluoroacetate]
19 | 526 | N#Cc1sccc1NC(=O)c1ccc2ccc(N[C@@H]3CCCC(F)(F)[C@@H]3N)nn12 [Example 98, 2-{[(1R,2R)-2-amino-3,3-difluorocyclohexyl]amino}-N-(2-cyanothiophen-3-yl)pyrrolo[1,2-b]pyridazine-7-carboxamide trifluoroacetate]
20 | 63 | Cn1cc(NC(=O)c2ccc3ccc(N4CCNCC4)nn23)c(C(F)(F)F)n1 [Example 99, N-(1-Methyl-3-(trifluoromethyl)-1H-pyrazol-4-yl)-2-(piperazin-1-yl)pyrrolo[1,2-b]pyridazine-7-carboxamide]
21 | 866 | N#Cc1ccccc1NC(=O)c1ccc2ccc(N3CCCNCC3)nn12 [Example 100, N-(2-Cyanophenyl)-2-(1,4-diazepan-1-yl)pyrrolo[1,2-b]pyridazine-7-carboxamide]
22 | 574 | N#Cc1ccccc1NC(=O)c1ccc2ccc(N3CCNCC3)nn12 [Example 101, N-(2-cyanophenyl)-2-piperazin-1-ylpyrrolo[1,2-b]pyridazine-7-carboxamide trifluoroacetate]
23 | 461 | N#Cc1ccccc1NC(=O)c1ccc2ccc(N3CC4CCC3CN4)nn12 (stereo not shown) [Example 102, N-(2-cyanophenyl)-2-(2,5-diazabicyclo[2.2.2]oct-2-yl)pyrrolo[1,2-b]pyridazine-7-carboxamide trifluoroacetate]
24 | 766 | N#Cc1ccccc1NC(=O)c1ccc2ccc(N3CCNCC4(CC4)C3)nn12 [Example 103, N-(2-cyanophenyl)-2-(5,8-diazaspiro[2.6]non-5-yl)pyrrolo[1,2-b]pyridazine-7-carboxamide trifluoroacetate]
25 | 6 | N#Cc1ccccc1NC(=O)c1ccc2ccc(N[C@@H]3CCCNC3)nn12 [Example 105, N-(2-cyanophenyl)-2-[(3R)-piperidin-3-ylamino]pyrrolo[1,2-b]pyridazine-7-carboxamide trifluoroacetate]
